Data: patent US5874583A, “2,3-dihydro-1H-isoindole derivatives” (Hoechst Marion Roussel Inc., priority 1997, dated 1999)
Structures can show the parent of a compound that is named as a salt.

Test system: serotonin (5-hydroxytryptamine (5HT)) uptake
Test: [3H]-Serotonin uptake in rat whole brain and hypothalamic synaptosomes
Type: biochemical
Settings: [3H]-5HT 50 nM, 37° C., 5 minutes
Experimental: [^3 H]-Serotonin Uptake in Rat Whole Brain and Hypothalamic Synaptosomes
This activity is determined in an assay which measures [^3 H]-serotoninuptake in rat whole brain and hypothalamic synaptosomes. The assay described below is used as a biochemical screen for potential antidepressants which block serotonin (5-hydroxytryptamine (5HT)) uptake.
Male CR Wistar rats (100-125 g)
1. Krebs-Henseleit Bicarbonate Buffer, pH 7.4 (KHBB):
The batch is aerated for 60 minutes with 95% 02 /5% CO2, the pH is checked to insure it is at 7.4±0.1, then add bovine serum albumin (Sigma cat# A-7906) 1 mg/ml.
3. Sucrose solution: 0.32M sucrose containing 5 mM HEPES and 0.1 mM EDTA; pH to 7.3 using Tris base.
4. A 0.1 mM stock solution of serotonin creatinine SO4 is made up in 0.01N HCl. This is used to dilute the specific activity of the radiolabeled 5HT.
The final desired concentration of [^3 H]-5HT in the assay is 50 nM. The dilution factor is 0.8. The KHBB is made up to contain 62.5 nM of [^3 H]-5HT.
6. For most assays, a 0.5 mM stock solution of the test compound is made up initially in either 10 μl of glacial acetic acid, 100 μl DMSO or 10 μl of the recrystallization solvent, to which is added approximately 10 ml of distilled water. Compounds are initially screened in duplicate at 3 concentrations (10^-8, 10^-7 and 10^-6 M) made up in water.
The Percoll method for preparing synaptosomes has been modified from Nagy, A., Delgado-Escueta, A. V. J. Neurochem. 43, 1114 (1984) and Dunkley, P. R., Jarvie, R. E., Heath, J. W., Kidd, G. J., Rostas, J. A. P. Brain Research 372, 115 (1986). Male Wistar rats are decapitated and the brain rapidly removed. Whole brain (minus cerebellum) is weighed and homogenized in 15 volumes of ice cold Sucrose solution using a Potter-Elvejhem homogenizer. The following procedures are performed on ice. Homogenization should be done with 4-5 up and down strokes at medium speeds (setting 4.5 to 5) to minimize synaptosome lysis. The homogenate is centrifuged at 1000 g (3000 rpm, Sorvall SS-34 rotor) for 10 minutes at 0°-4° C.
The Percoll gradient tubes are carefully placed into a Beckman SW-28 swinging bucket rotor and spun in a Beckman XL90 ultracentrifuge using the following program: speed, 11,000 rpm (15,000 g) for 30 minutes at 4° C.; slow acceleration and deceleration (acceleration setting 9; deceleration setting 3). Tubes are carefully removed, and the top layer and the top part of the middle (red) layer are discarded using a pasteur pipette. The synaptosomes are located in the white fluffy band at the interface between the 10% and 21% Percoll layers. This is carefully removed, placed in a centrifuge tube, diluted with KHBB and spun at 21,000 g (13,000 rpm, Sorvall SS-34 rotor). The pellet (synaptosomes) is resuspended in KHBB (10 vol per gram original brain wet weight; 1 brain minus cerebellum weighs approximately 1.2 g; 2.5 brains are needed per typical assay).
200 μl of the tissue suspension are added to each of 24 tubes (at a time) containing the 20 μl of vehicle or drug on ice. Three minutes later, 800 μl of KHBB containing [^3 H]-5HT are added, and the tubes are vortexed. The rack containing the 24 tubes is moved from the ice bath to a water bath set at 37° C. The tubes are incubated for 5 minutes under 95% O2 /5% CO2.

For CCC1c2ccccc2CN1c1ccncc1 (centres unmarked) [2,3-Dihydro-1-Ethyl-2-(4-Pyridyl)-1H-Isoindole Maleate], which IC50 is on record?
Its IC50 is 1140 nM.

How did the IC50 turn out when CC1c2ccccc2CN1c1ccncc1 (centres unmarked) [2,3-Dihydro-1-Methyl-2-(4-Pyridyl)-1H-Isoindole Fumarate] was run?
Its IC50 is 736 nM.

CCCC1c2ccccc2CN1c1ccncc1 (centres unmarked) [2,3-Dihydro-1-Propyl-2-(4-Pyridyl)-1H-Isoindole Maleate] was tested. Which IC50 did it give?
Its IC50 is 725 nM.

c1ccc2c(c1)CN(c1ccncc1)C2 [2,3-Dihydro-2-(4-Pyridyl)-1H-Isoindole Maleate] was tested. Which IC50 did it give?
The IC50 was 880 nM.

How did the IC50 turn out when CC(C)CC1c2ccccc2CN1c1ccncc1 (centres unmarked) [2,3-dihydro-1-(2-methylpropyl)-2-(4-pyridyl)-1H-isoindole maleate] was run?
The IC50 was 849 nM.
